Measured values reported in BindingDB's records for doi:10.1021/jm030354b (Millennium Pharmaceuticals, 2004).

Target: Integrin alpha-IIb/beta-3 (Homo sapiens, UniProt P08514+P05106)
Assay: Inhibition of platelet aggregation induced by 20 uM adenosine 5-diphosphate (ADP) in citreated human platelet rich plasma (h-PRP)

Sequence of Integrin alpha-IIb/beta-3 (P05106 27-788 limits assumed): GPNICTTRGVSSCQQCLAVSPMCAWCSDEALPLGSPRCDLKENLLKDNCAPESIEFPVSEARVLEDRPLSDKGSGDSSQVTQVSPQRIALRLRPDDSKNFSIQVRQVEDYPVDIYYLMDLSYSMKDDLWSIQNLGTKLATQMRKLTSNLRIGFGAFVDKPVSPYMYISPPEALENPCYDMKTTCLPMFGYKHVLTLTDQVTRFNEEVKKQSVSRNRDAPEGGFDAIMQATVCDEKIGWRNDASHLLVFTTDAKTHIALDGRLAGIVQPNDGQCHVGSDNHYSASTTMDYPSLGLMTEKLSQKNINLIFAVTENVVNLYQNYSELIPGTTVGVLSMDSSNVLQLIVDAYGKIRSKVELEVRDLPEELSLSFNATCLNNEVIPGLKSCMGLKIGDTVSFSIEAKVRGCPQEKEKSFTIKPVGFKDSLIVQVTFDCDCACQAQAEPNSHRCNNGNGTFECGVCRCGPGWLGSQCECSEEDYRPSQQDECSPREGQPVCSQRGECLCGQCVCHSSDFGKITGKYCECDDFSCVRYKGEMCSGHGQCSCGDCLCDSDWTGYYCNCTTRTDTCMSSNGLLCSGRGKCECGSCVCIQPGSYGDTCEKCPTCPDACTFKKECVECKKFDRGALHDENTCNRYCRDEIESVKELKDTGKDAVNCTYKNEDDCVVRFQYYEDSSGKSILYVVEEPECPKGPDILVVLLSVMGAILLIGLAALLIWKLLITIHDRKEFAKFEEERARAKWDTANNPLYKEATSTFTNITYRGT
Sequence of Integrin alpha-IIb/beta-3 (P08514 32-887 limits assumed): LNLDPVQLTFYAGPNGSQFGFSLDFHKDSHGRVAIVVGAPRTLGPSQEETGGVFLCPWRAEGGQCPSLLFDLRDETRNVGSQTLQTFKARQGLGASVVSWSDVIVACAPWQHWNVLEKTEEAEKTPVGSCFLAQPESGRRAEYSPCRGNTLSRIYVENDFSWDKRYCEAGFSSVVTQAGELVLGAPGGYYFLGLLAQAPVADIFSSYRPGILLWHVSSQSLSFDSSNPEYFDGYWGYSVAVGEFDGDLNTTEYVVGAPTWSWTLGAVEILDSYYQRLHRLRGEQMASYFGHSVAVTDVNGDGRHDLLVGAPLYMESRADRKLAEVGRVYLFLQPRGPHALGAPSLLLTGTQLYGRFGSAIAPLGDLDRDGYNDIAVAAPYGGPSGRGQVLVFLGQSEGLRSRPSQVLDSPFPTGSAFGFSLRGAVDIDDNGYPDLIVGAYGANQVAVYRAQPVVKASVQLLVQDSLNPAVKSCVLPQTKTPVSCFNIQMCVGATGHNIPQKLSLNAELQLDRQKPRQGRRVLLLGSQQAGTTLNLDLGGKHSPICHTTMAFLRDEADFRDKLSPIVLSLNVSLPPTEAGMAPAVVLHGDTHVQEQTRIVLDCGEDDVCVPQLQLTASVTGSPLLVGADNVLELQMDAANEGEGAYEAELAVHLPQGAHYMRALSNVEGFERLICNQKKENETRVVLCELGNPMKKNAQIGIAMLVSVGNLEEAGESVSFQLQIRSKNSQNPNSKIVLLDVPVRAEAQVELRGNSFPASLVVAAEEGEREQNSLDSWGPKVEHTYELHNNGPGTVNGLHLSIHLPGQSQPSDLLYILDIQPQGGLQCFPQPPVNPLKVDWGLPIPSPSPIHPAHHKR
Sequence of Integrin alpha-IIb/beta-3 (P08514 891-1039 limits assumed): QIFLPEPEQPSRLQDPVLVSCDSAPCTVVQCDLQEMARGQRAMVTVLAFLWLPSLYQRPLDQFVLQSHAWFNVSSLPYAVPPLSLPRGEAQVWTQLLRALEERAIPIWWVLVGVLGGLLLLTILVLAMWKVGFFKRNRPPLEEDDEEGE

IC50 | Structure (SMILES)
0.35 µM | C[C@H](CC(=O)O)CC(=O)N1CCC2(CC1)CCN(c1ccc(C(=N)N)cc1)C2=O [(S)-5-[2-(4-Carbamimidoyl-phenyl)-1-oxo-2,8-diaza-spiro[4.5]dec-8-yl]-3-methyl-5-oxo-pentanoic acid]
7.4 µM | N=C(N)c1ccc(N2CC3(CCN(C(=O)CC(=O)O)CC3)CC2=O)cc1 [3-[2-(4-Carbamimidoyl-phenyl)-3-oxo-2,8-diaza-spiro[4.5]dec-8-yl]-3-oxo-propionic acid]
0.122 µM | CC(CC(=O)O)NC(=O)N1CCC2(CC1)CCN(c1ccc(C(=N)N)cc1)C2=O (configuration not stated) [3-{[2-(4-Carbamimidoyl-phenyl)-1-oxo-2,8-diaza-spiro[4.5]decane-8-carbonyl]-amino}-butyric acid]
7.54 µM | CCNC(=N)c1ccc(N2CCC3(CCN(C(=O)CCCC(=O)O)CC3)C2=O)cc1 [5-{2-[4-(N-Ethylcarbamimidoyl)-phenyl]-1-oxo-2,8-diaza-spiro[4.5]dec-8-yl}-5-oxo-pentanoic acid]
0.586 µM | N=C(N)c1ccc(N2C(=O)NC3(CCN(C(=O)CCCC(=O)O)CC3)C2=O)cc1 [5-[3-(4-Carbamimidoyl-phenyl)-2,4-dioxo-1,3,8-triaza-spiro[4.5]dec-8-yl]-5-oxo-pentanoic acid]
0.118 µM | Cc1noc(C)c1S(=O)(=O)N[C@@H](CCC(=O)N1CCC2(CC1)C(=O)N(c1ccc(C(=N)N)cc1)C(=O)N2C)C(=O)O [5-[3-(4-Carbamimidoyl-phenyl)-1-methyl-2,4-dioxo-1,3,8-triaza-spiro[4.5]dec-8-yl]-2-(3,5-dimethyl-isoxazole-4-sulfonylamino)-5-oxo-pentanoic acid]
0.212 µM | CN1C(=O)N(c2ccc(C(=N)N)cc2)CC12CCN(C(=O)NCCC(=O)O)CC2 [3-{[3-(4-Carbamimidoyl-phenyl)-1-methyl-2-oxo-1,3,8-triaza-spiro[4.5]decane-8-carbonyl]-amino}-propionic acid]
4.1 µM | N=C(N)c1ccc(N2CC3(CCN(C(=O)CCCCC(=O)O)CC3)CC2=O)cc1 [6-[2-(4-Carbamimidoyl-phenyl)-3-oxo-2,8-diaza-spiro[4.5]dec-8-yl]-6-oxo-hexanoic acid]
0.08 µM | CN1C(=O)N(c2ccc(C(=N)N)cc2)CC12CCN(C(=O)CC(CC(=O)O)c1ccccc1)CC2 (configuration not stated) [5-[3-(4-Carbamimidoyl-phenyl)-1-methyl-2-oxo-1,3,8-triaza-spiro[4.5]dec-8-yl]-5-oxo-3-phenyl-pentanoic acid]
0.103 µM | CN1C(=O)N(c2ccc(C(=N)N)cc2)C(=O)C12CCN(C(=O)NC(CC(=O)O)c1ccccc1)CC2 (configuration not stated) [3-{[3-(4-Carbamimidoyl-phenyl)-1-methyl-2,4-dioxo-1,3,8-triaza-spiro[4.5]decane-8-carbonyl]-amino}-3-phenyl-propionic acid]
0.468 µM | N=C(N)c1ccc(N2C(=O)NC3(CCN(C(=O)NCCC(=O)O)CC3)C2=O)cc1 [3-{[3-(4-Carbamimidoyl-phenyl)-2,4-dioxo-1,3,8-triaza-spiro[4.5]decane-8-carbonyl]-amino}-propionic acid]
0.1 µM | N=C(N)c1ccc(N2CC3(CCN(C(=O)CC(CC(=O)O)c4ccccc4)CC3)CC2=O)cc1 (configuration not stated) [5-[2-(4-Carbamimidoyl-phenyl)-3-oxo-2,8-diaza-spiro[4.5]dec-8-yl]-5-oxo-3-phenyl-pentanoic acid]
7.56 µM | CN1C(=O)N(c2ccc(C(=N)N)cc2)C(=O)C12CCN(CCCCC(=O)O)CC2 [5-[3-(4-Carbamimidoyl-phenyl)-1-methyl-2,4-dioxo-1,3,8-triaza-spiro[4.5]dec-8-yl]-pentanoic acid]
0.733 µM | N=C(N)c1ccc(N2CCC3(CCN(C(=O)CCC(=O)O)CC3)C2=O)cc1 [4-[2-(4-Carbamimidoyl-phenyl)-1-oxo-2,8-diaza-spiro[4.5]dec-8-yl]-4-oxo-butyric acid]
0.171 µM | N=C(N)c1ccc(N2CC3(CCN(C(=O)NCCC(=O)O)CC3)CC2=O)cc1 [3-{[2-(4-Carbamimidoyl-phenyl)-3-oxo-2,8-diaza-spiro[4.5]decane-8-carbonyl]-amino}-propionic acid]
0.066 µM | Cc1ccc(S(=O)(=O)N[C@@H](CNC(=O)N2CCC3(CC2)CCN(c2ccc(C(=N)N)cc2)C3=O)C(=O)O)cc1 [3-{[2-(4-Carbamimidoyl-phenyl)-1-oxo-2,8-diaza-spiro[4.5]decane-8-carbonyl]-amino}-2-(toluene-4-sulfonylamino)-propionic acid]
0.73 µM | N=C(N)c1ccc(N2C(=O)CC3(CCN(C(=O)CCCC(=O)O)CC3)C2=O)cc1 [5-[2-(4-Carbamimidoyl-phenyl)-1,3-dioxo-2,8-diaza-spiro[4.5]dec-8-yl]-5-oxo-pentanoic acid]
3.6 µM | CC(C)(COC(=O)N1CCC2(CC1)CC(=O)N(c1ccc(C(=N)N)cc1)C2)C(=O)O [2-(4-Carbamimidoyl-phenyl)-3-oxo-2,8-diaza-spiro[4.5]decane-8-carboxylic acid 2-carboxy-2-methyl-propyl ester]
0.7 µM | CN1C(=O)N(c2ccc(C(=N)N)cc2)C(=O)C12CCN(C(=O)CCCC(=O)O)CC2 [5-[3-(4-Carbamimidoyl-phenyl)-1-methyl-2,4-dioxo-1,3,8-triaza-spiro[4.5]dec-8-yl]-5-oxo-pentanoic acid]
12.5 µM | N=C(N)c1ccc(N2CCC3(CCN(C(=O)CC(=O)O)CC3)C2=O)cc1 [3-[2-(4-Carbamimidoyl-phenyl)-1-oxo-2,8-diaza-spiro[4.5]dec-8-yl]-3-oxo-propionic acid]
5.18 µM | N=C(N)c1ccc(N2CCC3(CCN(CCCCC(=O)O)CC3)C2=O)cc1 [5-[2-(4-Carbamimidoyl-phenyl)-1-oxo-2,8-diaza-spiro[4.5]dec-8-yl]-pentanoic acid]
0.64 µM | N=C(N)c1ccc(N2C(=O)CC3(CCN(C(=O)NCCC(=O)O)CC3)C2=O)cc1 [3-{[2-(4-Carbamimidoyl-phenyl)-1,3-dioxo-2,8-diaza-spiro[4.5]decane-8-carbonyl]-amino}-propionic acid]
0.12 µM | CN1C(=O)N(c2ccc(C(=N)N)cc2)C(=O)C12CCN(C(=O)CC(CC(=O)O)c1ccccc1)CC2 (configuration not stated) [5-[3-(4-Carbamimidoyl-phenyl)-1-methyl-2,4-dioxo-1,3,8-triaza-spiro[4.5]dec-8-yl]-5-oxo-3-phenyl-pentanoic acid]
3.4 µM | N=C(N)c1ccc(N2CCC3(CCN(C(=O)CCCCC(=O)O)CC3)C2=O)cc1 [6-[2-(4-Carbamimidoyl-phenyl)-1-oxo-2,8-diaza-spiro[4.5]dec-8-yl]-6-oxo-hexanoic acid]
3.77 µM | N=C(N)c1ccc(N2CC3(CCN(C(=O)NCCC(=O)O)CC3)NC2=O)cc1 [3-{[3-(4-Carbamimidoyl-phenyl)-2-oxo-1,3,8-triaza-spiro[4.5]decane-8-carbonyl]-amino}-propionic acid]
0.036 µM | Cc1noc(C)c1S(=O)(=O)N[C@@H](CCC(=O)N1CCC2(CC1)CCN(c1ccc(C(=N)N)cc1)C2=O)C(=O)O [5-[2-(4-Carbamimidoyl-phenyl)-1-oxo-2,8-diaza-spiro[4.5]dec-8-yl]-2-(3,5-dimethyl-isoxazole-4-sulfonylamino)-5-oxo-pentanoic acid]

Structure (SMILES) | IC50
CCCCOC(=O)N[C@@H](CCC(=O)N1CCC2(CC1)CCN(c1ccc(C(=N)N)cc1)C2=O)C(=O)O [2-Butoxycarbonylamino-5-[2-(4-carbamimidoyl-phenyl)-1-oxo-2,8-diaza-spiro[4.5]dec-8-yl]-5-oxo-pentanoic acid] | 0.066 µM
